Measurements from the supplement of paper PMC13380429.

What was measured:
Settings in all cases: 72 h
[1] = system: Caco-2; assay: cell viability relative to DMSO; higher = less toxic
[2] = system: Calu-3; assay: as above
[3] = system: HepG2; assay: as above
[4] = system: U2OS; assay: as above
[5] = system: Vero E6; assay: as above
[6] = system: Caco-2; assay: relative viability EC50 (midpoint between 100% and the lowest measured viability); higher = less toxic
[7] = system: Calu-3; assay: as above
[8] = system: HepG2; assay: as above
[9] = system: U2OS; assay: as above
[10] = system: Vero E6; assay: as above
[11] = system: Caco-2; assay: drug sensitivity score (DSS) for viability; higher = more toxic; extreme values may be limits of the assay
[12] = system: Calu-3; assay: as above
[13] = system: HepG2; assay: as above
[14] = system: U2OS; assay: as above
[15] = system: Vero E6; assay: as above

Row | SMILES | cell viability ([1]; 1 nM) | cell viability ([1]; 10 nM) | cell viability ([1]; 100 nM) | cell viability ([1]; 1000 nM) | cell viability ([1]; 10000 nM) | cell viability ([2]; 1 nM) | cell viability ([2]; 10 nM) | cell viability ([2]; 100 nM) | cell viability ([2]; 1000 nM) | cell viability ([2]; 10000 nM) | cell viability ([3]; 1 nM) | cell viability ([3]; 10 nM) | cell viability ([3]; 100 nM) | cell viability ([3]; 1000 nM) | cell viability ([3]; 10000 nM) | cell viability ([4]; 1 nM) | cell viability ([4]; 10 nM) | cell viability ([4]; 100 nM) | cell viability ([4]; 1000 nM) | cell viability ([4]; 10000 nM) | cell viability ([5]; 1 nM) | cell viability ([5]; 10 nM) | cell viability ([5]; 100 nM) | cell viability ([5]; 1000 nM) | cell viability ([5]; 10000 nM) | relative viability EC50 [6] | relative viability EC50 [7] | relative viability EC50 [8] | relative viability EC50 [9] | relative viability EC50 [10] | drug sensitivity score [11] | drug sensitivity score [12] | drug sensitivity score [13] | drug sensitivity score [14] | drug sensitivity score [15]
1 | CC(=O)C1=C(O)C=C2Oc3c(C(C)=O)c(O)c(C)c(O)c3C2(C)C1=O (stereo not drawn) [usniacin-(+)] | 104% | 101% | 91.1% | 95.6% | 108% | 107% | 99.4% | 95.2% | 113% | 96.4% | 111% | 97.1% | 102% | 110% | 94% | 98.9% | 75.3% | 95.8% | 83.5% | 95.5% | 101% | 95.4% | 100% | 98.9% | 101% | > 10 µM | > 10 µM | > 10 µM | > 10 µM | > 10 µM | 0 | 0 | 0 | 0 | 0
2 | O=C(CO)[C@@H](O)[C@@H](O)[C@H](O)CO [tagatose] | 98.5% | 94.4% | 103% | 106% | 99.3% | 98.4% | 99.6% | 99.7% | 97% | 102% | 101% | 91.6% | 97.6% | 94.9% | 106% | 89.1% | 95.3% | 92.7% | 102% | 107% | 93.7% | 94.5% | 92.1% | 85.3% | 110% | > 10 µM | > 10 µM | > 10 µM | > 10 µM | > 10 µM | 0 | 0 | 0 | 0 | 0
3 | O=C(CN1CCN(Cc2ccc3c(c2)OCO3)CC1)N1c2ccccc2Sc2ccccc21 [fenoverine] | 106% | 110% | 105% | 98.5% | 82.7% | 92.8% | 109% | 99.2% | 103% | 110% | 94.6% | 104% | 101% | 90% | 90.3% | 95.1% | 97.2% | 98.1% | 94.9% | 96.7% | 87.4% | 98.2% | 98.4% | 95% | 84.7% | > 10 µM | > 10 µM | > 10 µM | > 10 µM | > 10 µM | 0.6 | 0 | 0 | 0 | 0
4 | CNC(=N)NCCC[C@H](N)C(=O)O [targinine] | 98.1% | 98% | 101% | 96.8% | 96% | 96.7% | 96.9% | 96.8% | 111% | 99.2% | 94.1% | 103% | 96.9% | 98.6% | 96.3% | 105% | 96.9% | 101% | 101% | 102% | 96.3% | 98.1% | 95.9% | 99.6% | 81.3% | > 10 µM | > 10 µM | > 10 µM | > 10 µM | > 10 µM | 0 | 0 | 0 | 0 | 0.5
5 | CC(C)Oc1ccc(-c2cnc3c(-c4ccnc5ccccc45)cnn3c2)cc1 [DMH1] | 108% | 93.7% | 102% | 95.9% | 95.6% | 117% | 102% | 105% | 108% | 96.4% | 104% | 103% | 100% | 96.8% | 90% | 103% | 100% | 98.4% | 94.4% | 89.8% | 95.4% | 104% | 98.2% | 104% | 104% | > 10 µM | > 10 µM | > 10 µM | > 10 µM | > 10 µM | 0 | 0 | 0 | 0 | 0
6 | COC(=O)[C@H](Cc1ccc([N+](=O)[O-])cc1)NC(=O)c1cccc2ccccc12 | 99.8% | 98.7% | 99.4% | 95.6% | 89% | 101% | 95.8% | 92.8% | 100% | 109% | 102% | 97.1% | 105% | 101% | 107% | 94.2% | 99% | 96.6% | 99.5% | 100% | 94.4% | 96.7% | 90.8% | 87.4% | 101% | > 10 µM | > 10 µM | > 10 µM | > 10 µM | > 10 µM | 0 | 0 | 0 | 0 | 0
7 | COc1ccc(/C=C\c2cc(OC)c(OC)c(OC)c2)cc1OP(=O)(O)O [fosbretabulin] | 104% | 116% | 55.4% | 51.1% | 45.4% | 104% | 120% | 90.2% | 61.4% | 45.9% | 104% | 108% | 96.7% | 21.9% | 23.9% | 98.4% | 105% | 94% | 25.4% | 19.5% | 103% | 100% | 38.4% | 13% | 7% | 0.0584 µM | 0.457 µM | 0.285 µM | 0.316 µM | 0.0744 µM | 15.2 | 8.1 | 14.7 | 14.6 | 24.1
